System: CD14 expression
Assay: Induction of CD14 expression in THP-1 cells (FITC-labeled anti-CD14 antibody, flow cytometry)
Type: cell-based, human
Details: VD3 about 100 nM, 3 days, 10,000 cells, 40 where no VD3 was added
Procedure: Human monocytic THP-1 cells (purchased from Dainippon Pharmaceutical Co., Ltd.) were used as cells. As a culture medium, RPMI medium 1640 with L-glutamine (RPMI; GIBCO Co.), to which inactivated fetal calf serum (GIBCO Co.) at a concentration of 10% (v/v) and penicillin-streptomycin involving penicillin G sodium and streptomycin sulfate at a concentration of 100 U/ml and 100 µg/ml respectively, were added. For induction of CD14 expression, the cells were suspended in the medium at a content of about 3 × 10^5 cells/ml, to which 1,25-dihydroxyvitamin D3 (VD3; Roussel-UCLAF S.A.) was added at a final concentration of about 100 nM. The cells were incubated in the presence of 5% CO2 in a CO2 incubator MODEL 6200-03 (National Appliance Company) at 37°C for 3 days. The cultured cells were suspended into PBS at 10^6 cells/ml, to which FITC-labeled anti-human CD14 monoclonal antibody clone. UCHM1 (Ancell Co.) was added at a concentration of 1.6 µg/ml. The mixture was incubated at 4°C for 1 hour. The cells were washed 3 times with PBS by centrifugation (1,000 rpm, 3 minutes, 20°C), suspended into 1,000 µl of PBS, and filtered through a tube with a filter (FALCON2235 (Becton Dickinson Co.)). For the resulting cell suspension, the amount of the FITC-labeled anti-CD14 antibody bound to 10,000 cells was determined using a flow cytometer Cyto ACE-300 (JASCO Coporation). […]

Compound: C=C1/C(=C\C=C2/CCC[C@]3(C)[C@@H]([C@H](C)CCCC(C)(C)O)CC[C@@H]23)C[C@@H](O)C[C@@H]1O [VD3, 1,25-dihydroxyvitamin D3]
- mean fluorescence intensity (MFI) of bound FITC-labeled anti-CD14 antibody: 114.9

Source: patent publication EP1134289A1, “METHOD FOR SCREENING CD14 AGONIST OR ANTAGONIST” (Takeda Chemical Industries, Ltd., priority 1998, dated 2000)
